The test system of data set [1] is Shh Light II. The experiment in a line: Inhibition of Shh signaling in mouse Shh-light2 cells by Gli-dependent firefly luciferase reporter gene assay. In kind it is functional, cell-based. A general note: In a reporter assay the amount or activity of a reporter protein is the signal.
Data set [2] concerns the target T1, Protein smoothened (Homo sapiens, UniProt Q99835). The experiment in a line: Displacement of Bodipy-labelled cyclopamine from Smo expressed in COS-1 cells in presence of 2% FBS after 4 to 6 hrs by FACS flow cytometric analysis. In kind it is cell-based.
The target in data set [3] is T1, Protein smoothened. The experiment in a line: Inhibition of Bodipy-labelled cyclopamine binding to Smo expressed in COS-1 cells at 25 uM in presence of 20% NHS after 4 to 6 hrs by FACS flow cytometric analysis. The class given is cell-based. (In general: In flow cytometry, cells or beads pass a laser one at a time.)
Data set [4] can be described thus: Intrinsic clearance in rat liver microsomes assessed per mg of protein. In kind it is ADME, Microsome. (In general: Liver microsomes are vesicles of endoplasmic reticulum, rich in cytochrome P450 enzymes.)
Data set [5] in a line: Fraction unbound in human plasma. The class given is ADME, cell-free.
For data set [6], the target named is T1, Protein smoothened. The experiment in a line: Inhibition of Bodipy-labelled cyclopamine binding to Smo expressed in COS-1 cells in presence of 20% NHS after 4 to 6 hrs by FACS flow cytometric analysis. In kind it is cell-based.
Data set [7] in a line: Clearance in rat. In kind it is ADME, organism-based. The note with it: in vivo.
Data set [8] can be described thus: Lipophilicity, log D of the compound. In kind it is physicochemical. The note with it: octanol/water.
Data set [9] in a line: Oral bioavailability in rat. In kind it is ADME, organism-based. The note with it: in vivo.
The target of a further data set is CYP2C9 (Homo sapiens, UniProt P11712). The data set is described as follows: Inhibition of CYP2C9 at 10 uM. In kind it is ADME.
The target in another data set is CYP3A4 (Homo sapiens, UniProt P08684). The experiment in a line: Inhibition of CYP3A4 at 10 uM. The class given is ADME.
Data set [10] deals with Shh Light II. The data set is described as follows: Inhibition of Shh signaling in mouse Shh-light2 cells at 20 uM by Gli-dependent firefly luciferase reporter gene assay. The class given is functional.
Data set [11] is described as follows: Intrinsic clearance in human liver microsomes assessed per mg of protein. In kind it is ADME, Microsome.
The nature of data set [12]: Terminal half life in rat. Conditions: in vivo, read-out: beta t1/2 (converted); call rule not given here. The class given is ADME, organism-based.
Data set [13] can be described thus: Clearance in dog. In kind it is ADME, organism-based, Canis lupus familiaris. Conditions: in vivo.
A short description of data set [14]: Half life in dog. The class given is ADME, organism-based, Canis lupus familiaris. The note with it: in vivo.
Data set [15] can be described thus: Inhibition of cytochrome P450 at 30 uM. The class given is ADME.
A short description of data set [16]: Induction of cytochrome P450 at 30 uM. In kind it is ADME.
A short description of data set [17]: Fraction unbound in rat plasma. In kind it is ADME, cell-free.
In data set [18] the target is T1, Protein smoothened. The data set is described as follows: Inhibition of Bodipy-labelled cyclopamine binding to Smo expressed in COS-1 cells at 4 uM in presence of 2% FBS after 4 to 6 hrs by FACS flow cytometric analysis. In kind it is cell-based.
Data set [19] deals with Shh Light II. The data set is described as follows: Inhibition of Shh signaling in mouse Shh-light2 cells at 10 uM by Gli-dependent firefly luciferase reporter gene assay. The class given is functional.
Data set [20] deals with T1, Protein smoothened. The experiment in a line: Inhibition of Bodipy-labelled cyclopamine binding to Smo expressed in COS-1 cells at 10 uM in presence of 2% FBS after 4 to 6 hrs by FACS flow cytometric analysis. The class given is cell-based.
A further data set has as its target Cytochrome P450 2D6 (Homo sapiens, UniProt P10635). The experiment in a line: Inhibition of CYP2D6. The class given is ADME.
A further data set deals with Cytochrome P450 2C9 (Homo sapiens, UniProt P11712). The experiment in a line: Inhibition of CYP2C9. In kind it is ADME.
A further data set has as its target Cytochrome P450 3A4 (Homo sapiens, UniProt P08684). The experiment in a line: Inhibition of CYP3A4. The class given is ADME.
The target of data set [21] is Potassium voltage-gated channel subfamily H member 2 (hERG), Homo sapiens. The data set is described as follows: Inhibition of human ERG.
A short description of data set [22]: Intrinsic clearance in dog liver microsomes assessed per mg of protein. The class given is ADME, Canis lupus familiaris, Microsome.
The target of data set [23] is T1, Protein smoothened. The data set is described as follows: Inhibition of Bodipy-labelled cyclopamine binding to Smo expressed in COS-1 cells at 2.5 uM in presence of 2% FBS after 4 to 6 hrs by FACS flow cytometric analysis. In kind it is cell-based.
The target of data set [24] is T1, Protein smoothened. The experiment in a line: Inhibition of Bodipy-labelled cyclopamine binding to Smo expressed in COS-1 cells at 2 uM in presence of 2% FBS after 4 to 6 hrs by FACS flow cytometric analysis. In kind it is cell-based.
For data set [25], the system named is Potassium voltage-gated channel subfamily H member 2 (hERG), Homo sapiens. The data set is described as follows: Inhibition of human ERG at 10 uM.

T1 sequence (Q99835 whole entry): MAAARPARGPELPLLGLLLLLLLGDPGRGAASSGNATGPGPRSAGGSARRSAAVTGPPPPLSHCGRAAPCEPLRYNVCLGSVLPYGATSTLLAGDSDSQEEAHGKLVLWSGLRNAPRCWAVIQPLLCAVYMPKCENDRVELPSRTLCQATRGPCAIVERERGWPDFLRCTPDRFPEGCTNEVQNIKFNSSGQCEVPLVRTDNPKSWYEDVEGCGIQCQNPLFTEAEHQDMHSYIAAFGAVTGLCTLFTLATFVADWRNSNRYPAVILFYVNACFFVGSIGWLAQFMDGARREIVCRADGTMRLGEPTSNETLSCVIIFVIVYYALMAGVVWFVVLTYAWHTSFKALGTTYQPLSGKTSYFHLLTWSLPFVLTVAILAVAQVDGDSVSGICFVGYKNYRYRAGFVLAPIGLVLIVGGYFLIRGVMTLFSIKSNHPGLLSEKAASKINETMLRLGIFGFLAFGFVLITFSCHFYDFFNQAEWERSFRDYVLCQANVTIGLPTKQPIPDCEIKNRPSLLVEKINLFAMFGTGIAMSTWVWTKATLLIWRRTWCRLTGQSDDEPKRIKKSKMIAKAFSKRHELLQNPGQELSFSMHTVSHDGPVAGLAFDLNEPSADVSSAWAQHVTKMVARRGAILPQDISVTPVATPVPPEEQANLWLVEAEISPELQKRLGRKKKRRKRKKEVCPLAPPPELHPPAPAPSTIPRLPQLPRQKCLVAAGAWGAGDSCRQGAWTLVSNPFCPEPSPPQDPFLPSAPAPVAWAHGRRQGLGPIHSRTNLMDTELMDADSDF
Sequence of CYP3A4 (P08684 whole entry): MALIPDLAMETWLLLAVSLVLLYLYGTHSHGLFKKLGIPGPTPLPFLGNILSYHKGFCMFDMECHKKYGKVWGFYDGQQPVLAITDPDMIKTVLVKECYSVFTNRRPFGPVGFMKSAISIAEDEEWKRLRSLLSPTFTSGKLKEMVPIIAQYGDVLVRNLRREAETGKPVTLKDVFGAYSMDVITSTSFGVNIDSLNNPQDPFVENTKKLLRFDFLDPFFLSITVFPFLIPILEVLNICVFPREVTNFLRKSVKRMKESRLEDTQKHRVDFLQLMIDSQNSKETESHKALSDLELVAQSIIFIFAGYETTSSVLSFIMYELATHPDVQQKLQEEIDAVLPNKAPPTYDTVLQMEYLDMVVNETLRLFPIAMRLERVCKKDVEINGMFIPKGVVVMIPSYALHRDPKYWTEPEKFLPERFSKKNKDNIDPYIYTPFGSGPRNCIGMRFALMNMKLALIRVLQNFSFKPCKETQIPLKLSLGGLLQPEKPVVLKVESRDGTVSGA
Sequence of CYP2C9 (P11712 whole entry): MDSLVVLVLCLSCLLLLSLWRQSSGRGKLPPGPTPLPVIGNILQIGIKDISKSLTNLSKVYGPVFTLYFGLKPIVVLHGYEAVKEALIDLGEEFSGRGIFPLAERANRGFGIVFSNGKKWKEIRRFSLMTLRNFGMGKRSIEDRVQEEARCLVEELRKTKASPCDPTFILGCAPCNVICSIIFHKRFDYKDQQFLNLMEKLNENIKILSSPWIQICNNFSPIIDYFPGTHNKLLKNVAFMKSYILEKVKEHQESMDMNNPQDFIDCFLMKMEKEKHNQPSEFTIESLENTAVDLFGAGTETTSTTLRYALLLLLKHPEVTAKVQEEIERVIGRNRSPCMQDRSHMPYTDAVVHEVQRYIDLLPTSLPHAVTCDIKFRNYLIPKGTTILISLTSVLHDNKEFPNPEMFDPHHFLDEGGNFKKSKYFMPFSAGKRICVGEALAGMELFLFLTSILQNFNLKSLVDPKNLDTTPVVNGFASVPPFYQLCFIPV
Sequence of Cytochrome P450 3A4 (P08684 whole entry): as the sequence (P08684 whole entry) above
Sequence of Cytochrome P450 2D6 (P10635 whole entry): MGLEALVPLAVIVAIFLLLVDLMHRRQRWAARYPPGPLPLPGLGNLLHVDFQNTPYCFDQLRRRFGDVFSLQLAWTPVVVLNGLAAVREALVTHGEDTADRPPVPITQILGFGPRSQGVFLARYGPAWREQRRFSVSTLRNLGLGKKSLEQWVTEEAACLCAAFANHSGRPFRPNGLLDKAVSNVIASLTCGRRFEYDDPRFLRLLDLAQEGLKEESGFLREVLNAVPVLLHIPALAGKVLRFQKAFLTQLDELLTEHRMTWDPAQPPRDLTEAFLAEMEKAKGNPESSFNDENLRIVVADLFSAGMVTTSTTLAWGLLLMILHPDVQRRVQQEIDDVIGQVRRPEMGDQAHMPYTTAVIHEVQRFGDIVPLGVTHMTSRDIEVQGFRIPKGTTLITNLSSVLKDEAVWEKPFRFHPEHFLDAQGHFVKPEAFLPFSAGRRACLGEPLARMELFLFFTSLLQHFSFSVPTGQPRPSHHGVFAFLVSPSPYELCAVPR
Sequence of Cytochrome P450 2C9 (P11712 whole entry): as the sequence (P11712 whole entry) above

As for `O=C(NC1CCC(O)CC1)N1CCC(c2nc(-c3ccc4ccccc4n3)no2)CC1` (configuration not stated), the IC50 (as a rule, the midpoint of a concentration-inhibition curve) is 2700 nM in the data set on Shh Light II [1] and 2500 nM at Protein smoothened [2]. Further, on Protein smoothened [3], the inhibition – broadly, how much of the control response was suppressed – turned out to be 65%.
As to `O=C(NC1CCCCC1)N1CCC(c2nc(-c3ccc4ccccc4n3)no2)CC1`, the IC50 in the data set on Shh Light II [1] amounted to 57 nM; at Protein smoothened [2], 280 nM; on Protein smoothened [6] it was 1600 nM. Further, the intrinsic clearance (microsomal CLint) (as a rule, the rate of metabolic loss divided by the concentration) in [4] is > 300 µL/min/mg. Also, the fraction unbound – broadly, the share of the substance not bound to proteins or other matrix – in [5] was 0.005.
Turning to `Cn1c(-c2noc(N3CCN(C(=O)NC4CCCCC4)CC3)n2)nc2ccccc21`, the results for the IC50 in the data set on Shh Light II [1], on Protein smoothened [2] and at Protein smoothened [6] were 5 nM, 3 nM and 33 nM, respectively. Further, in [4], the microsomal CLint stood at 119 µL/min/mg. Also, the clearance (in general, the rate of elimination divided by the concentration) in data set [7] was 26 mL/min/kg. Besides, the pH-dependent lipophilicity (logD) (in general, lipophilicity at a set pH, counting ionised and neutral species) in data set [8] is 2.57. The bioavailability – broadly, the share of a dose that reaches the circulation, judged against a reference dose that is usually intravenous – in [9] was determined as 10%.
Regarding `Cn1c(-c2noc(C3CCN(C(=O)Nc4ccccc4Cl)CC3)n2)nc2ccccc21`, the half-inhibitory concentration (IC50) with Shh Light II [1] was determined as 430 nM; on Protein smoothened [2], 1000 nM; on Protein smoothened [6], 4500 nM. The microsomal CLint in data set [4] was determined as 174 µL/min/mg. Besides, the logD in [8] is 2.85. Further, the inhibition at 10 µM was determined as 44% against CYP2C9 and 35% against CYP3A4.
As to `COc1ccccc1NC(=O)N1CCC(c2nnc(-c3ccc4ccccc4n3)o2)CC1`, the IC50 at Protein smoothened [2] came out at 4700 nM. Moreover, the inhibition at 20 µM with Shh Light II [10] is 57%.
With `O=C(NC1CCC(F)(F)CC1)N1CCN(c2nc(-c3ccc4ccccc4n3)no2)CC1`, the figures for the IC50 in the data set on Shh Light II [1] and on Protein smoothened [6] were 5 nM and 39 nM, respectively. The microsomal CLint in data set [4] is 61 µL/min/mg; in data set [11], 8 µL/min/mg. In addition, the values for the clearance in data set [7] and in data set [13] were 32 mL/min/kg and 20 mL/min/kg, respectively. This compound also came in with a pH-dependent lipophilicity (logD) in data set [8] of 2.67. Further, the half-life was 1.3 h in data set [12] and 1.1 h in data set [14]. Further, in [15], the “inhibition (INH)” value was “Not Active”. Besides, in data set [16], the Activity result is reported as “Not Active”.
Take `Cn1c(-c2noc(C3CCN(C(=O)NC4CCCCC4)CC3)n2)nc2ccccc21`: the IC50 in the data set on Shh Light II [1] is 89 nM; on Protein smoothened [2], 350 nM; on Protein smoothened [6], 1100 nM. This compound also yielded a microsomal CLint in [4] of 192 µL/min/mg. The clearance in data set [7] was found to be 26 mL/min/kg. Moreover, the fraction unbound in data set [17] was determined as 0.02. Further, in data set [9], the bioavailability came to 59%. Besides, the half-life in data set [12] is 1.3 h.
Regarding `COc1ccc(NC(=O)N2CCC(c3nc(-c4ccc5ccccc5n4)no3)CC2)cc1`, the IC50 at Protein smoothened [2] was > 2500 nM. In addition, the inhibition on Protein smoothened [18] came to 68%.
`COc1ccccc1NC(=O)N1CC(c2nc(-c3ccc4ccccc4n3)no2)C1`: the inhibition at 10 µM in the data set with Shh Light II [19] came to 28%. At Protein smoothened [20], the inhibition worked out at 39%.
Turning to `O=C(Nc1ccccc1Cl)N1CCN(c2nc(-c3ccc4ccccc4n3)no2)CC1`, the IC50 in the data set with Shh Light II [1] was 140 nM; on Protein smoothened [2], 170 nM; on Cytochrome P450 2D6 it was > 25000 nM; against Cytochrome P450 2C9 it was > 25000 nM; on Cytochrome P450 3A4, > 25000 nM; at Protein smoothened [6], 700 nM. In addition, the IC50 in data set [21] stood at 12000 nM. Further, in data set [8], the logD is 2.95.
Turning to `CS(=O)(=O)c1ccc(NC(=O)N2CCC(c3nc(-c4ccc5ccccc5n4)no3)CC2)c(Cl)c1`, the values for the IC50 at Protein smoothened [2] and on Protein smoothened [6] were 1500 nM and 4100 nM, respectively. The same compound had a logD in data set [8] of 2.8.
`O=C(NC1CCCCC1)N1CCN(c2nc(-c3ccc4ccccc4n3)no2)CC1`: the IC50 was 53 nM in the data set with Shh Light II [1], 45 nM on Protein smoothened [2], 180 nM at Protein smoothened [6] and > 30000 nM in data set [21]. Further, the microsomal CLint was 189 µL/min/mg in data set [4], 54 µL/min/mg in data set [22] and 60 µL/min/mg in [11]. Further, the clearance in data set [7] was 54 mL/min/kg; in data set [13] it was 16 mL/min/kg. The same compound gave a logD in data set [8] of 2.76. For the same compound, the bioavailability in data set [9] was 24%. Moreover, the half-life was 1.1 h in data set [12] and 1.4 h in data set [14]. In addition, the “inhibition (INH)” value in data set [15] was “Not Active”. The Activity entry in data set [16] was “Not Active”.
For `COc1ccccc1NC(=O)N1CCC(c2nc(-c3ccc4ccccc4n3)no2)C1` (configuration not stated), in the data set on Shh Light II [19], the inhibition at 10 µM worked out at 15%. For the same compound, at Protein smoothened [20], the inhibition was found to be 38%.
On to `Cc1cccnc1-c1noc(C2CCN(C(=O)Nc3ccccc3Cl)CC2)n1`, for which the inhibition on Protein smoothened [23] worked out at 63%.
Take `COc1ccccc1NC(=O)N1CCC(c2nc(-c3ncccc3C)no2)CC1`: the inhibition on Protein smoothened [24] was found to be 51%.
Take `O=C(NC1CCS(=O)(=O)CC1)N1CCC(c2nc(-c3ccc4ccccc4n3)no2)CC1`: the half-inhibitory concentration (IC50) in the data set on Shh Light II [1] was found to be 360 nM; on Protein smoothened [2], 860 nM; at Protein smoothened [6] it was 1600 nM. For the same compound, the microsomal CLint in [4] was 8 µL/min/mg. Moreover, the clearance in [7] came out at 40 mL/min/kg. Also, in [12], the half-life was 0.9 h.
`O=C(Nc1ccccc1Cl)N1CCC(c2nc(-c3ccc4ccccc4n3)no2)CC1`: the half-inhibitory concentration (IC50) is 510 nM in the data set on Shh Light II [1], 380 nM at Protein smoothened [2] and 3500 nM on Protein smoothened [6]. In addition, the intrinsic clearance (microsomal CLint) in data set [4] is > 200 µL/min/mg; in data set [22], 65 µL/min/mg; in [11], 45 µL/min/mg. In addition, the clearance in data set [7] was found to be 11 mL/min/kg. Further, the logD in data set [8] amounted to 4.25. The fraction unbound is 0.01 in data set [17] and 0.005 in data set [5]. This compound also had a bioavailability in [9] of 38%. For the same compound, the inhibition at 10 µM is 62% against CYP2C9 and 58% against CYP3A4. This compound also registered an inhibition in data set [25] of 62%.

The values above are taken from ChEMBL document CHEMBL1821555, “Identification of a series of 4-[3-(quinolin-2-yl)-1,2,4-oxadiazol-5-yl]piperazinyl ureas as potent smoothened antagonist hedgehog pathway inhibitors” (Bioorg Med Chem Lett, 2011).
